Measured values: patent publication EP2729445B1, “CYCLIC AMINE DERIVATIVES AS EP4 RECEPTOR ANTAGONISTS” (Rottapharm Biotech S.r.l., priority 2011, dated 2013)

Assays:
[1] = Pharmacokinetics after intravenous and oral treatment, plasma LC-MS/MS; format: in vivo, male Han Wistar rats; settings: rat, 1 mg/kg; for AUC(0-inf): extrapolated to infinity
Procedure: The pharmacokinetics of compounds E7, E17 and E18, were studied in male Han Wistar rats. The rats were treated intravenously and orally (n=3 for each dose route) with compounds formulated as solutions. The rats were fitted with a jugular cannula for serial sampling. A full profile was acquired from each rat. Plasma extracts were quantitatively analyzed using a specific and sensitive LC-MS/MS bioanalytical method. Inter-individual variations between the three rats in each group were limited (CV for pharmacokinetic parameters was below 50%). […] A range of clearance values were obtained for the different structure, ranging from low to moderate values (from 43 to 250 ml/h). After oral administration, absorption was quite fast with a clear maximum concentration reached by the first sampling time-point of 15 minutes for all compounds.

[2] = molecular target: T1, hEP4 receptors (Homo sapiens, UniProt P35408); assay: cAMP assay (AlphaScreen) on human EP4 membrane of transfected cells, antagonism of PGE2; format: biochemical; settings: HEK293 cell membrane stimulated with PGE2 3nM; read-out: functional IC50
T1 construct: membrane fraction used
Procedure: (§1) The cDNA clone of human EP4 receptor (NM_000958.2) was obtained from InvitrogenTM: Ultimate™ ORF Clone Collection - Clone ID IOH46525. The coding sequence was subcloned in expression vector pcDNATM6.2/V5-DEST by Gateway technology (InvitrogenTM). Human embryonic kidney cells (HEK-293) were stably transfected with expression vector for human EP4 receptor in according to the method described in FuGENE®6 Transfection Reagent's manual (Roche Applied Science®).
(§2) The EP4 transfected cells were grown in Dulbecco's modified Eagle's medium containing 10% fetal bovine serum and 10 µg/ml Blasticidin S HCl (selection medium) at 37°C in a humidified atmosphere of 5% CO2 in air. For the membrane preparation, cells in flask were harvested by hypotonical/mechanical lysis with chilled (4°C) TE buffer (5mM TRIS, 5mM ethylenediamine tetra-acetic acid (EDTA), pH 7.4). Cells were detached and lysed with 10ml of hypotonic lysis buffer and by scraping. The cell lysate was vortexed for 30 sec and centrifuged at 40000x g at 4°C for 22min.
The assay is based on the competition between endogenous cAMP and exogenously added biotinylated cAMP. The capture of cAMP is achieved by using a specific antibody conjugated to Donor beads. Cell membranes prepared as described above, were resuspended in 1 ml stimulation buffer (HBSS 1X + BSA 0.1% + IBMX 0.5mM + HEPES 5mM + MgCl2 10mM + GTP 1 nM + GDP 10µM + ATP 100µM - pH 7.4). Cell membranes were dispensed into white 384-well microplates at final concentration of 1µg/well and used for the determination of cAMP with the alphascreen cAMP functional assay (EnVision - PerkinElmer). Cell membrane/anti-cAMP Acceptor beads mix (5 µl) and a mixture of analysed compounds (dissolved in 100% DMSO to a final maximal concentration of 0.01% DMSO)/PGE2 (5 µl) were incubated at room temperature (22-23°C) for 30 min in the dark. The Biotinylated-cAMP and donor beads (15 µl) were dispensed into each well to start the competition reaction. After 1 h incubation RT (22-23°C) in the dark the plate was read using EnVision platform to determine the cAMP level (excitation: 680nm; emission:520,620nm). In each experiment:
cAMP standard curve (concentration range from 1x10-6 to 1x10-11 M in log intervals) with a negative control (no cAMP)
a positive control: forskolin 10µM
Antagonism studies were performed stimulating HEK293 cell membrane with PGE2 3nM. The AlphaScreen signal is plotted as a function of log concentration of cAMP and functional IC50 is determined. IC50 value is calculated by linear regression.

[3] = molecular target: T1, hEP4 receptors; assay: [3H]-Prostaglandin E2 membrane binding assay; settings: read-out: Binding pKi (converted)
Procedure: as §1, §2
The membrane pellet was resuspended in the same buffer (5mM TRIS, 5mM ethylenediamine tetra-acetic acid (EDTA), pH 7.4), and protein concentration was determined by Bradford method (Bio-Bad® assay). This membrane preparation was stored at -80°C freezer until use for binding assay. ([^3H]-PGE2) membranes binding assays toward hEP4 receptors (human EP4/HEK293 transfectant, see above) and hEP2 receptors (human EP2/HEK293 transfectant, purchased from PerkinElmer Inc) were performed in 10 mM MES-KOH buffer pH6, containing 10 mM MgCl2 and 1 mM CaCl2 for EP4 binding assay or 50 mM Tris-Cl, BSA 0.5% for EP2 binding assay (according to supplier indication) . Ten microgram of protein from membrane fractions were incubated in a total volume of 0.1ml (EP4) or 0.2ml (EP2) with 1nM (EP4) or 3nM (EP2) [^3H]-PGE2 (PerkinElmer Inc, 171Ci/mmol). In both assays to determine the total binding or non specific binding, 1% DMSO or 1µM prostaglandin E2 (EP4) or 100 µM (EP2) were added to reaction mixtures, respectively. Incubation was conducted in a polypropylene 96 multiwell for 90 min (EP4) or 60 min (EP2) at room temperature prior to separation of the bound and free radioligand by vacuum manifold rapid filtration on glass fiber filters (Unifilter GFB96, PerkinElmer Inc) pre-soaked in 0.3% polyethyleneimine. Filters were washed with ice cold buffer pH 7.4 (50mM HEPES, NaCl 500mM, BSA 0.1% for EP4 binding assay or 50mM Tris-Cl for EP2 binding assays) and the residual [^3H]-PGE2 binding determined by solid scintillation counter (TopCount , PerkinElmer Inc).
The affinity (Ki) of each compound was calculated according to the Cheng-Prousoff equation: Ki = IC50/(1+([C]/Kd)). Results were expressed as pKi (- log10 Ki (M)

T1 sequence (P35408 whole entry): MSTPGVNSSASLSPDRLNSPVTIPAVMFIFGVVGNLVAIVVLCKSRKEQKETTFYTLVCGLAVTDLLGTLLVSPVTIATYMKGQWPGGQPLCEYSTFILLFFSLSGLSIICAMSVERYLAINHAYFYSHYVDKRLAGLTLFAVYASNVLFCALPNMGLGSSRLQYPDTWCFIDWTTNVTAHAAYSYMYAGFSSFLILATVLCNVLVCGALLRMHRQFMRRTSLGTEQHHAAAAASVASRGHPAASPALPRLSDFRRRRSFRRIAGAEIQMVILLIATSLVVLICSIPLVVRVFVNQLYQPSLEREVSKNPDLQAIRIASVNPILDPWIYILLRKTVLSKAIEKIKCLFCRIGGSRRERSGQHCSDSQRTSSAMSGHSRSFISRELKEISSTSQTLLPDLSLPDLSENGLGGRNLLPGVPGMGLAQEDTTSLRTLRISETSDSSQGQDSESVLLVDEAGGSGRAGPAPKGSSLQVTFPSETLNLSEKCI

- AUC(0-t) ([1]; male, Han Wistar, plasma, iv): 966 ng·h/mL
- AUC(0-inf) ([1]; male, Han Wistar, plasma, iv): 1040 ng·h/mL
- half-life ([1]; male, Han Wistar, plasma, iv, extrapolated, indicative only): 7.3 h
- clearance ([1]; male, Han Wistar, plasma, iv, extrapolated, indicative only, read-out: CLp* (converted)): 4.22 mL/min
- Vd ([1]; male, Han Wistar, plasma, iv, extrapolated, indicative only, read-out: Vss*): 1.79 L
- AUC(0-t) ([1]; male, Han Wistar, plasma, po): 823 ng·h/mL
- Cmax ([1]; male, Han Wistar, plasma, po): 318 ng/mL
- Tmax ([1]; male, Han Wistar, plasma, po): 0.5 h
- AUC(0-inf) ([1]; male, Han Wistar, plasma, po): 1080 ng·h/mL
- half-life ([1]; male, Han Wistar, plasma, po, extrapolated, indicative only): 14.1 h
- bioavailability ([1]; male, Han Wistar, plasma, po): 85%
- Tlast ([1]; po): 24 h
- IC50 [2]: 28 nM
- Ki [3]: 12.6 nM
Structure (SMILES): O=C(O)c1ccc(C2(NC(=O)[C@H]3CC(F)(F)CCN3Cc3ccc(C(F)(F)F)cc3)CC2)cc1 [Example E17, (R)-4-(1-(4,4-difluoro-1-(4-(trifluoromethyl)benzyl)piperidine-2-carboxamido)cyclopropyl)benzoic acid]
